The values that follow are results of earlier work, collected in US20260091069A1, “TRANS[…] TRA[…] REGULATED ONCOLYTIC HERPES SIMPLEX VIRUS VECTORS” (VIROGIN BIOTECH CANADA LTD, priority 2021, published 2026).

The conditions of this data set: clinical dose of Ganciclovir.

Regarding `Nc1nc(O)c2ncn(COC(CO)CO)c2n1` [Ganciclovir], the Cmax in humans was 9000 ng/mL.
